Earlier results in PubChem BioAssay AID1259409 (Chemical Carcinogenesis Research Information System (CCRIS), 2018).

Tested on: rodent chemically induced tumor inhibition, incidence and multiplicity
Assay: CCRIS tumor inhibitor studies
Conditions: Dose [Inhibitor]: 0

## O=c1oc2c(O)c(O)cc3c(=O)oc4c(O)c(O)cc1c4c23
Carcinogen: 4-(METHYLNITROSOAMINO-1-(PYRIDYL)-1-BUTANONE, 64091-91-4, 4 G/KG DIET BEGINNING 2 WK PRIOR TO CARCINOGEN DOSE (STUDY DURATION: 18 WK), Route [Inhibitor]: ORAL, Species: MOUSE, Strain/Sex: STRAIN-A/FEMALE, Target Tissue: Type of Lesion: LUNG: ADENOMA, Dose [Carcinogen]: 2 MG IN 0.2 ML OF 0.9% NACL ONCE, Promoter: NONE USED
  tumour outcome (control, treated, inhibition, significance): 100%, 100%, 0%, not significant
Carcinogen: 4-METHYLNITROSOAMINO-1-(PYRIDYL)-1-BUTANONE, 64091-91-4, 4 G/KG DIET BEGINNING 2 WK PRIOR TO CARCINOGEN DOSE AND CONTINUING FOR STUDY DURATION (STUDY DURATION: 18 WK), Route [Inhibitor]: ORAL, Species: MOUSE, Strain/Sex: STRAIN-A/FEMALE, Target Tissue: Type of Lesion: LUNG: ADENOMA, Dose [Carcinogen]: 62.4 UG/ML DRINKING WATER FOR 7 WK (TOTAL DOSE 9.4 MG), Promoter: NONE USED
  tumour outcome (control, treated, inhibition, significance): 100%, 96%, 4%, not calculated
Carcinogen: 4-NITROQUINOLINE-1-OXIDE, 56-57-5, 400 PPM IN DIET FOR 7 WK BEGINNING 1 WK PRIOR TO START OF CARCINOGEN TREATMENT (STUDY DURATION: 32 WK), Route [Inhibitor]: ORAL, Species: RAT, Strain/Sex: F344/MALE, Target Tissue: Type of Lesion: TONGUE: PAPILLOMA, Dose [Carcinogen]: 20 PPM IN DRINKING WATER FOR 5 WK, Promoter: NONE USED
  tumour outcome (control, treated, inhibition, significance): 1/15 (7%), 0/15 (0%), 100%, not significant
Carcinogen: 7,12-DIMETHYLBENZ[A]ANTHRACENE, 57-97-6', 1000 PPM IN DIET FOR DURATION OF STUDY BEGINNING CONCURRENTLY WITH CARCINOGEN TREATMENT (STUDY DURATION: 42 WK0, Route [Inhibitor]: ORAL, Species: FISH, Strain/Sex: RAINBOW TROUT/ MALE, FEMALE, Target Tissue: Type of Lesion: LIVER: TUMOR, Dose [Carcinogen]: 750 PPM IN DIET FOR 7 WK, Promoter: NONE USED
  tumour outcome (control, treated, inhibition, significance): 6%, 9%, -50%, not significant
Carcinogen: 7,12-DIMETHYLBENZ[A]ANTHRACENE, 57-97-6, 5 UMOL IN 0.4 ML ACETONE 20 MIN PRIOR TO EACH PROMOTER DOSE (STUDY DURATION: 47 WK), Route [Inhibitor]: DERMAL, Species: MOUSE, Strain/Sex: CF-1/FEMALE, Target Tissue: Type of Lesion: SKIN: CARCINOMA, Dose [Carcinogen]: 100 NMOL IN 0.2 ML ACETONE ONCE
  tumour outcome (control, treated, inhibition, significance): 67%, 17%, 75%, not calculated
Carcinogen: 7,12-DIMETHYLBENZ[A]ANTHRACENE, 57-97-6, 5 UMOL IN 0.4 ML ACETONE 20 MIN PRIOR TO EACH PROMOTER DOSE (STUDY DURATION: 47 WK), Route [Inhibitor]: DERMAL, Species: MOUSE, Strain/Sex: CF-1/FEMALE, Target Tissue: Type of Lesion: SKIN: PAPILLOMA, Dose [Carcinogen]: 100 NMOL IN 0.2 ML ACETONE ONCE
  tumour outcome (control, treated, inhibition, significance): 94%, 54%, 43%, not calculated
Carcinogen: 7,12-DIMETHYLBENZ[A]ANTHRACENE, 57-97-6, 100 PPM IN DIET FOR 19 WK BEGINNING POST CARCINOGEN TREATMENT (STUDY DURATION: 42 WK), Route [Inhibitor]: ORAL, Species: FISH, Strain/Sex: RAINBOW TROUT/ MALE, FEMALE, Target Tissue: Type of Lesion: STOMACH: TUMOR, Dose [Carcinogen]: 4.16 PPM IN WATER FOR 1 HR, Promoter: NONE USED
  tumour outcome (control, treated, inhibition, significance): 97%, 65%, 33%, p<0.001
Carcinogen: 7,12-DIMETHYLBENZ[A]ANTHRACENE, 57-97-6, 100 PPM IN DIET FOR 19 WK BEGINNING POST CARCINOGEN TREATMENT (STUDY DURATION: 42 WK), Route [Inhibitor]: ORAL, Species: FISH, Strain/Sex: RAINBOW TROUT/ MALE, FEMALE, Target Tissue: Type of Lesion: SWIM BLADDER: TUMOR, Dose [Carcinogen]: 4.16 PPM IN WATER FOR 1 HR, Promoter: NONE USED
  tumour outcome (control, treated, inhibition, significance): 14%, 14%, 0%, not significant
Carcinogen: 7,12-DIMETHYLBENZ[A]ANTHRACENE, 57-97-6, 250 PPM IN DIET FOR 19 WK BEGINNING POST CARCINOGEN TREATMENT (STUDY DURATION: 42 WK), Route [Inhibitor]: ORAL, Species: FISH, Strain/Sex: RAINBOW TROUT/ MALE, FEMALE, Target Tissue: Type of Lesion: LIVER: TUMOR, Dose [Carcinogen]: 4.16 PPM IN WATER FOR 1HR, Promoter: NONE USED
  tumour outcome (control, treated, inhibition, significance): 7%, 17%, -143%, p<0.001
Carcinogen: 7,12-DIMETHYLBENZ[A]ANTHRACENE, 57-97-6, 250 PPM IN DIET FOR 19 WK BEGINNING POST CARCINOGEN TREATMENT (STUDY DURATION: 42 WK), Route [Inhibitor]: ORAL, Species: FISH, Strain/Sex: RAINBOW TROUT/ MALE, FEMALE, Target Tissue: Type of Lesion: STOMACH: TUMOR, Promoter: NONE USED
  tumour outcome (control, treated, inhibition, significance): 97%, 39%, 60%, p<0.001
Carcinogen: 7,12-DIMETHYLBENZ[A]ANTHRACENE, 57-97-6, 250 PPM IN DIET FOR 19 WK BEGINNING POST CARCINOGEN TREATMENT (STUDY DURATION: 42 WK), Route [Inhibitor]: ORAL, Species: FISH, Strain/Sex: RAINBOW TROUT/MALE, FEMALE, Target Tissue: Type of Lesion: SWIM BLADDER: TUMOR, Dose [Carcinogen]: 4.16 PPM IN WATER FOR 1HR, Promoter: NONE USED
  tumour outcome (control, treated, inhibition, significance): 14%, 13%, 7%, not significant
Carcinogen: 7,12-DIMETHYLBENZ[A]ANTHRACENE, 57-97-6, 1000 PPM IN DIET FOR 17 WK BEGINNING POST CARCINOGEN TREATMENT (STUDY DURATION: 42 WK), Route [Inhibitor]: ORAL, Species: FISH, Strain/Sex: RAINBOW TROUT/ MALE, FEMALE, Target Tissue: Type of Lesion: STOMACH: TUMOR, Dose [Carcinogen]: 5.5 PPM IN WATER FOR 1 HR, Promoter: NONE USED
  tumour outcome (control, treated, inhibition, significance): 88%, 26%, 70%, p<0.001
